Data as given in ChEMBL document CHEMBL5058646 (2022).

Columns and labels:
Histamine H3 receptor = Histamine H3 receptor (Homo sapiens, UniProt Q9Y5N1); assay: GPCRScan assay: inhibition of H3; set-up: radioligand conc. used [nm] 0.5 – 1.0, parental cells HEK Flp-In
[1] = biological target: Adenosine receptor A1 (Homo sapiens) (UniProt P30542); assay: (§1) GPCRScan assay: inhibition of A1; set-up: radioligand conc. used [nm] 5.0, parental cells HEKT; details: Compound concentration 10.0 uM
Adenosine receptor A1 = Adenosine receptor A1 (Homo sapiens, UniProt P30542); assay: as §1; set-up: radioligand conc. used [nm] 5.0, parental cells HEKT
Adenosine receptor A1, sequence (P30542 whole entry): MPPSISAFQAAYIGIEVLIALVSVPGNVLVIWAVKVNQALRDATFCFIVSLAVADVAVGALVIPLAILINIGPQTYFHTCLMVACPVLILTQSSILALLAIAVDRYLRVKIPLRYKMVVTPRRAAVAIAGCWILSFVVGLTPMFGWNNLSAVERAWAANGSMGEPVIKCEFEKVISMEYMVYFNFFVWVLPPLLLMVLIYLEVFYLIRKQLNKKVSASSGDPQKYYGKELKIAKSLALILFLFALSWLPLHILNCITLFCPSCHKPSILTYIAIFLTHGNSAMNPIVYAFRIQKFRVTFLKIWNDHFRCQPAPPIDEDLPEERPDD

[2] = biological target: Dual specificity tyrosine-phosphorylation-regulated kinase 1A (Homo sapiens) (UniProt Q13627); assay: DYRK1A SGC Tm panel (DSF); details: Compound concentration 20.0 uM
[3] = biological target: Serine/threonine-protein kinase pim-1 (Homo sapiens) (UniProt P11309); assay: PIM1 SGC Tm panel (DSF); details: Compound concentration 20.0 uM
Serine/threonine-protein kinase pim-1 (Homo sapiens), sequence (P11309 whole entry, looked up): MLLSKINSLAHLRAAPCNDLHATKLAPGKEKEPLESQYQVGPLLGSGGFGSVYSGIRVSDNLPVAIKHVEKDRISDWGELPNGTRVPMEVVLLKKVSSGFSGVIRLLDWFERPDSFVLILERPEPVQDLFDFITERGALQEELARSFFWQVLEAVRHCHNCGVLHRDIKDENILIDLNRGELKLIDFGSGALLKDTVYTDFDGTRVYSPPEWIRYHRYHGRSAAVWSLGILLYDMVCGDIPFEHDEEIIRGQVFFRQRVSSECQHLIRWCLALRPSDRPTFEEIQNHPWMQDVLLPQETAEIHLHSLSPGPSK

[4] = biological target: Serine/threonine-protein kinase 10 (Homo sapiens) (UniProt O94804); assay: STK10 SGC Tm panel (DSF); details: Compound concentration 20.0 uM
Serine/threonine-protein kinase 10 (Homo sapiens), sequence (O94804 whole entry, looked up): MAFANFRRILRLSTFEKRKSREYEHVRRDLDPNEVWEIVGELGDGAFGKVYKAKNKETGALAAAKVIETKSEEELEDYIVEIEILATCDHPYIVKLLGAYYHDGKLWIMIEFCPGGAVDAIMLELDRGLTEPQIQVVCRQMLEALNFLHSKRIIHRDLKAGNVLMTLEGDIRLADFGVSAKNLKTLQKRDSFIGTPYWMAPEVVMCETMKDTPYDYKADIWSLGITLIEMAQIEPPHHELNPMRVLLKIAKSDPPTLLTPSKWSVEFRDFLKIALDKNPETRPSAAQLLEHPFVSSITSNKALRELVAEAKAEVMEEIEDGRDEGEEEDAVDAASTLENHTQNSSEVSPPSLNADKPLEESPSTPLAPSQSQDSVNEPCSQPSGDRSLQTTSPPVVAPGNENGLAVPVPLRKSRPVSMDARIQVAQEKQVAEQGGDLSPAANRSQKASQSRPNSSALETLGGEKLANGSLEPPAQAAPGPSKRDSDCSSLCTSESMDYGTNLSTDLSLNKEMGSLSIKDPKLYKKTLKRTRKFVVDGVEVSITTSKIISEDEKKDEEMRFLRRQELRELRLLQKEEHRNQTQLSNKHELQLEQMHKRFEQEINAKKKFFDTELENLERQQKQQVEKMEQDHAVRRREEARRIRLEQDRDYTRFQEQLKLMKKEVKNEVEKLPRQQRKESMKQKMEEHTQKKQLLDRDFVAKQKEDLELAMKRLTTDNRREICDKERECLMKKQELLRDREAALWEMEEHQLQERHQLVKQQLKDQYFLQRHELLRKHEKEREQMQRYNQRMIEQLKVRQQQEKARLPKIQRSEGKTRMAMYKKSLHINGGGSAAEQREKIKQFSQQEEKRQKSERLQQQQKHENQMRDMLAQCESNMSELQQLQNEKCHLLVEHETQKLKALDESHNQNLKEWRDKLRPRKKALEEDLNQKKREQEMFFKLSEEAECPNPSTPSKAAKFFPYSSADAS

[5] = biological target: Serine/threonine-protein kinase ULK3 (Homo sapiens) (UniProt Q6PHR2); assay: ULK3 SGC Tm panel (DSF); details: Compound concentration 20.0 uM
Serine/threonine-protein kinase ULK3 (Homo sapiens), sequence (Q6PHR2 whole entry): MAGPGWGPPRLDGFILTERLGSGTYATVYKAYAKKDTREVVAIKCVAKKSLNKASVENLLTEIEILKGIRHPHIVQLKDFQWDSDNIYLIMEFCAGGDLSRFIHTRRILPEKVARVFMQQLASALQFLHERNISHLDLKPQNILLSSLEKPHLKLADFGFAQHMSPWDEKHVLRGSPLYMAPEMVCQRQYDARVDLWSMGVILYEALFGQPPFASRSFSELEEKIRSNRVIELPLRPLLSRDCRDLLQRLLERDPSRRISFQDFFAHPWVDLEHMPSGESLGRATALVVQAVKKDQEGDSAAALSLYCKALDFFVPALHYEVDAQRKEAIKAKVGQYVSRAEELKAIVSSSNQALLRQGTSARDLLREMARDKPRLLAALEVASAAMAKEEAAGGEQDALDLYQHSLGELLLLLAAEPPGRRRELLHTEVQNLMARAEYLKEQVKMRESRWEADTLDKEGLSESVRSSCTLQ

[6] = biological target: Sodium-dependent dopamine transporter (Homo sapiens, UniProt Q01959); details: Compound concentration 10.0 uM
Sodium-dependent dopamine transporter, sequence (Q01959 whole entry): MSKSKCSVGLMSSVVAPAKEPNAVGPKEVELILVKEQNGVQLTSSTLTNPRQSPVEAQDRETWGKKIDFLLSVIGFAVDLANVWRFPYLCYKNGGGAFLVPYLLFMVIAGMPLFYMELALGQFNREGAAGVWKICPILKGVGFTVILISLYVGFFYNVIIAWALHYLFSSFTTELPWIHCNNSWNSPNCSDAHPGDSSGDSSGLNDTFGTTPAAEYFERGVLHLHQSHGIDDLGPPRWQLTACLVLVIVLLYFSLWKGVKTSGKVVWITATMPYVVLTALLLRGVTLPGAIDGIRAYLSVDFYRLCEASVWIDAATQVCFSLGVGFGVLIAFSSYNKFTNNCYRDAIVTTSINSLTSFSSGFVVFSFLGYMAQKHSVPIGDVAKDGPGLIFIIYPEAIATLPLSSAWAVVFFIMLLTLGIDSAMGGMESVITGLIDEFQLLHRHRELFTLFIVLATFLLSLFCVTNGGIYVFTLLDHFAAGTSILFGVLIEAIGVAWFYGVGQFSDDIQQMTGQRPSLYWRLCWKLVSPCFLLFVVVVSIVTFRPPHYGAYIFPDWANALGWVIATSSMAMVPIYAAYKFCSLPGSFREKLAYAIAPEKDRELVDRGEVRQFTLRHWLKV

[7] = biological target: Alpha-1A adrenergic receptor (Homo sapiens) (UniProt P35348); details: Compound concentration 10.0 uM
Alpha-1A adrenergic receptor (Homo sapiens), sequence (P35348 whole entry, the tested form may be a part): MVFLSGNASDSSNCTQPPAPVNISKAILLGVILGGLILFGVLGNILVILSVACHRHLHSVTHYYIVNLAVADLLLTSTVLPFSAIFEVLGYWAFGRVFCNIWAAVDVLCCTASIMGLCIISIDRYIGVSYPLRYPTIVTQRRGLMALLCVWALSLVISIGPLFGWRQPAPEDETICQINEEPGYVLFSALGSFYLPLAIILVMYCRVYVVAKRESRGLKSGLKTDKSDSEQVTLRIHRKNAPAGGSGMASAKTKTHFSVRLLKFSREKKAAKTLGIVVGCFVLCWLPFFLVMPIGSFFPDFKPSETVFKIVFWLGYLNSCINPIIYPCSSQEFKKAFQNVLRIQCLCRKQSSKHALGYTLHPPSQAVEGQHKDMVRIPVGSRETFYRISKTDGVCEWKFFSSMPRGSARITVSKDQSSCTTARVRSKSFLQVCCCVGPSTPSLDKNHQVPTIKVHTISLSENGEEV

[8] = biological target: T1, Zinc finger and BTB domain-containing protein 2 (Homo sapiens) (UniProt Q8N680); details: SUD4, Compound concentration 1.0 uM
T1 sequence (whole entry): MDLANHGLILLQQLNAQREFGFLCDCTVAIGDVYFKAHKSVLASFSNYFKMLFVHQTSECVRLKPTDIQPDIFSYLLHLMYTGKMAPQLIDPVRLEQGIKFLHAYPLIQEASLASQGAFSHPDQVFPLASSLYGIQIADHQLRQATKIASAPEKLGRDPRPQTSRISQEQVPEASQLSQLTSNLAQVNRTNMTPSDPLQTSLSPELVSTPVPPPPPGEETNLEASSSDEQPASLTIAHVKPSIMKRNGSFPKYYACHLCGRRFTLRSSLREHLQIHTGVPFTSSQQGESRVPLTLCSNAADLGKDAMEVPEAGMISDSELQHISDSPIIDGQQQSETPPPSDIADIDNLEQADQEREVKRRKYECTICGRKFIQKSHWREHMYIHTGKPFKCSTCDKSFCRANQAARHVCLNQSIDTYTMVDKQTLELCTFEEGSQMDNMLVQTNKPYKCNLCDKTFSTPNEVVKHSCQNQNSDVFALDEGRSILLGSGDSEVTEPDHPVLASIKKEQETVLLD

[9] = biological target: T2, Zinc finger and BTB domain-containing protein 9 (Homo sapiens) (UniProt Q96C00); details: OCI-Ly1, Compound concentration 1.0 uM
T2 sequence (whole entry): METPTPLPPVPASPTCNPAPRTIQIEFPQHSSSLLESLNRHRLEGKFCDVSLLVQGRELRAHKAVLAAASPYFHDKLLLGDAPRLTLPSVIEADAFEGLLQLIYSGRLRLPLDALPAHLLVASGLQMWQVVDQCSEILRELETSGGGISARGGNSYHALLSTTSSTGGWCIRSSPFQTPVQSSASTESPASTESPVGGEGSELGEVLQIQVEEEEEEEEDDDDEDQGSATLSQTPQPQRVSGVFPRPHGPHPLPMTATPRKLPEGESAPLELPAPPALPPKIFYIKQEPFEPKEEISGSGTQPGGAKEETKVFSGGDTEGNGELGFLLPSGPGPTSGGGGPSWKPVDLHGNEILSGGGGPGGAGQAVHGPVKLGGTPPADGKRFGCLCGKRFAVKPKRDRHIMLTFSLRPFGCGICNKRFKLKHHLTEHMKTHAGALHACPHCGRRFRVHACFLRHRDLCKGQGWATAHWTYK

[10] = biological target: T3, Zinc finger and BTB domain-containing protein 10 (Homo sapiens) (UniProt Q96DT7); details: OCI-Ly1, Compound concentration 1.0 uM
T3 sequence (whole entry): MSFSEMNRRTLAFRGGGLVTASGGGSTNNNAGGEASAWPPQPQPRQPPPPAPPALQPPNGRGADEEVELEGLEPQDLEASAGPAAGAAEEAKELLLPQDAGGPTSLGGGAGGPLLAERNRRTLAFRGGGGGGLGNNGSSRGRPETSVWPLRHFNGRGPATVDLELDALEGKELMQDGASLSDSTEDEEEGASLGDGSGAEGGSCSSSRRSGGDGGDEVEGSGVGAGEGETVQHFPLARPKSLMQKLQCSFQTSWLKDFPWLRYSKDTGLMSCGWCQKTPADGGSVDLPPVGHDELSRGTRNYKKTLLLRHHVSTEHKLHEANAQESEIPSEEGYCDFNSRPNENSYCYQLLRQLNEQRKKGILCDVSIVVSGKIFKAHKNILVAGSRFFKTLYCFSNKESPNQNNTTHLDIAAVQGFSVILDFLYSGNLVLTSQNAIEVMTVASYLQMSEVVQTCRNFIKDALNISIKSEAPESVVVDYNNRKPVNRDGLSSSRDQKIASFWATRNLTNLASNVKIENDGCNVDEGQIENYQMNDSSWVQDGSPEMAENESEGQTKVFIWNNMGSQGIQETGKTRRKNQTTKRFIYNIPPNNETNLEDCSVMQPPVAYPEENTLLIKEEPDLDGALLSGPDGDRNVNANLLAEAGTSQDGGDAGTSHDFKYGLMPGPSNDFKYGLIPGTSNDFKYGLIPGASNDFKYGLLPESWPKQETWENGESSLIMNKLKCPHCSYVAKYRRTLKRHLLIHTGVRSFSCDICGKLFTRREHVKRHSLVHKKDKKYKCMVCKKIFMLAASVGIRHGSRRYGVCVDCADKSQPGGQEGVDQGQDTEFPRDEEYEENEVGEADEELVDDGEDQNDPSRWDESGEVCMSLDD

Histamine H3 receptor, sequence (Q9Y5N1 whole entry): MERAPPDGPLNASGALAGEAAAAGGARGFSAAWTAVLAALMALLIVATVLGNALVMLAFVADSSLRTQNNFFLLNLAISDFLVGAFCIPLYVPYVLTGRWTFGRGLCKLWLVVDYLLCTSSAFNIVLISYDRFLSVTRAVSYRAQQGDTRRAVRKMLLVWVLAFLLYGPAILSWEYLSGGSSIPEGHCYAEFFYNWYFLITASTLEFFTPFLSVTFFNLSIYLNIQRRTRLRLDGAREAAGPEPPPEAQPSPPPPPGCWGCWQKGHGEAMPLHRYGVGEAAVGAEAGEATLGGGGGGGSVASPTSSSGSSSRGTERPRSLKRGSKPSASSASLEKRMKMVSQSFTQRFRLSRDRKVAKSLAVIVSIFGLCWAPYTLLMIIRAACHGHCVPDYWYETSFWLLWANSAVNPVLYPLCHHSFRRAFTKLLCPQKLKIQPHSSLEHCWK
Adenosine receptor A1 (Homo sapiens), sequence (P30542 whole entry): as the sequence (P30542 whole entry) above

Ki (Histamine H3 receptor; read-out: Ki): 2330 nM
Ki (Histamine H3 receptor; read-out: pKi (converted)): 2040 nM
inhibition [1]: 93.1%
Ki (Adenosine receptor A1; read-out: Ki): 1630 nM
Ki (Adenosine receptor A1; read-out: pKi (converted)): 1100 nM
Tm [2]: 45 °C
Tm [3]: 41 °C
Tm [4]: 42 °C
Tm [5]: 44 °C
inhibition [6]: 50.8%
inhibition [7]: 7.7%
LogFC [8]: 0.029
LogFC [9]: -0.0251
LogFC [10]: 0.103
SMILES: C[C@@H]1CN(c2ncc(Cl)c(Nc3ccc4c(c3)n(CCC(C)(C)O)c(=O)n4C)n2)C[C@H](C)C1(F)F
